Data set [1] in a line: Caco-2 permeability assay (apical to basolateral). The data set is classed as in vitro ADME, human. The settings on record: for Papp A→B: Caco-2, Caco_Papp_Average. The method in brief: (§1)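 Apical-to-basolateral flux was determined by LC-MS of both compartments after 90 min at 37°C on an orbital shaker, with 50 μM peptide on the apical side and HBSS below. Monolayers were grown for 6 days in an accelerated Caco-2 Transwell format and verified by TEER before and after the run.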
In general terms: Passage across Caco-2 layers is used to estimate intestinal permeability.

In another data set the test system is Caco-2 cells. Description: Caco-2 permeability assay (apical to basolateral). In kind it is in vitro ADME, human. The note with it: Caco-2. Summed up:
as §1

For data set [2] the following is noted: PAMPA. For orientation: PAMPA measures passive passage across an artificial lipid membrane.
The nature of a further data set: in vitro. The settings on record: PAMPA, PAMPA_Papp_Avg.

In general, Papp A→B refers to the apparent permeability from the apical to the basolateral side of a cell layer. Higher therefore signals fast passage. Broadly, the Papp is the rate of passage across a membrane or cell layer, normalised by area and donor concentration. The low end stands for slow passage, the high end for fast passage.

Where a SMILES comes first, the peptide text is derived from it. [ ]: non-standard residue; d: D form. ξ: configuration not given here. dIle(3ξ) = CCC(C)[C@@H](N)C(=O)O; dNMeF = CN[C@H](Cc1ccccc1)C(=O)O; NMeL = CN[C@@H](CC(C)C)C(=O)O; dNMeL = CN[C@H](CC(C)C)C(=O)O; NMeA = CN[C@@H](C)C(=O)O; dNMeA = CN[C@H](C)C(=O)O; Aib = CC(C)(N)C(=O)O

On to `CC[C@@H](C)[C@H]1NC(=O)[C@H](C)N(C)C(=O)[C@H]([C@@H](C)CC)NC(=O)[C@H]2CCCN2C(=O)[C@H](CC(C)C)N(C)C(=O)[C@@H](C(C)C)NC(=O)[C@H](C)N(C)C(=O)[C@H]([C@@H](C)CC)NC(=O)[C@@H](CC(C)C)NC(=O)[C@@H]2CCCN2C(=O)[C@H]2CCCN2C1=O` [Design D11.10, DPRO ILE *ALA DILE DPRO PRO DLEU ILE *ALA DVAL *LEU] (cyclo([dL]I[NMeA][dV][NMeL][dP]I[NMeA][dI][dP]P)), for which, in data set [1], the apparent permeability from apical to basolateral (Papp A→B) amounted to 4.54 ×10⁻⁶ cm/s. In the data set with Caco-2 cells, this molecule registered a Caco_R1 of 4.35 and a Caco_R3 of 4.8. In data set [2], this molecule showed a PAMPA_R1 of 2.19E-06 and a PAMPA_R3 of 3.23E-06. The apparent permeability (Papp) in “in vitro” was found to be 2.45 ×10⁻⁶ cm/s.

Molecule `CCC(C)[C@H]1NC(=O)[C@H](CC(C)C)NC(=O)[C@@H](C)N(C)C(=O)[C@@H]2CCCN2C(=O)[C@H](C)NC(=O)[C@@H](CC(C)C)NC(=O)[C@H]2CCCN2C(=O)[C@H](C(C)C)NC(=O)[C@@H](CC(C)C)N(C)C1=O` (stereo partly drawn) [Design D9.30, DPRO DLEU ALA PRO *DALA LEU DILE *DLEU VAL] (cyclo(AP[dNMeA]L[dIle(3ξ)][dNMeL]V[dP][dL])) had a Papp A→B in data set [1] of 2.32 ×10⁻⁶ cm/s. In the data set on Caco-2 cells, the Caco_R1 is 1.9 and the Caco_R3 was found to be 2.72. In addition, in data set [2], the PAMPA_R1 was 1.58E-06 and the PAMPA_R3 is on record as 1.58E-06. Further, the Papp in the data set “in vitro” turned out to be 1.6 ×10⁻⁶ cm/s.

For `CC[C@@H](C)[C@H]1NC(=O)[C@@H]2CCCN2C(=O)[C@@H]([C@H](C)CC)NC(=O)[C@@H](C)N(C)C(=O)[C@H](CC(C)C)NC(=O)[C@@H](Cc2ccccc2)NC(=O)[C@H](CC(C)C)N(C)C(=O)[C@H]2CCCN2C(=O)[C@@H](CC(C)C)NC(=O)[C@H](CC(C)C)NC(=O)[C@H]2CCCN2C1=O` [Design D11.1, DILE DPRO LEU DLEU DPRO *LEU DPHE LEU *DALA DILE PRO] (cyclo(L[dL][dP][NMeL][dF]L[dNMeA][dI]P[dI][dP])), the Papp A→B in data set [1] amounted to 2.77 ×10⁻⁶ cm/s. In the data set with Caco-2 cells, this molecule had a Caco_R1 of 2.39 and a Caco_R3 of 3.24. In data set [2], this molecule gave a PAMPA_R1 of 3.55E-06 and a PAMPA_R3 of 3.63E-06. In the data set “in vitro”, this molecule gave a Papp of 3.48 ×10⁻⁶ cm/s.

Molecule `CC[C@@H](C)[C@H]1NC(=O)[C@H](Cc2ccccc2)NC(=O)[C@@H](CC(C)C)N(C)C(=O)[C@@H]2CCCN2C(=O)[C@@H](C(C)C)NC(=O)[C@@H](C)N(C)C(=O)[C@H]2CCCN2C(=O)[C@@H](CC(C)C)NC(=O)[C@H](CC(C)C)NC(=O)[C@@H]2CCCN2C1=O` [Design D10.30, PRO *DLEU PHE DILE PRO LEU DLEU DPRO *DALA DVAL] (cyclo(F[dI]PL[dL][dP][dNMeA][dV]P[dNMeL])) came in with an apical-to-basolateral permeability (Papp A→B) in data set [1] of 16.1 ×10⁻⁶ cm/s. Further, the Papp at 90 min, 50 µM in data set [1] (human, Caco-2) was > 10 ×10⁻⁶ cm/s. In the data set on Caco-2 cells, this molecule displayed a Caco_R1 of 15.3 and a Caco_R3 of 15.5. In data set [2], this molecule had a PAMPA_R1 of 5.23E-06 and a PAMPA_R3 of 4.05E-06. This molecule showed a Papp in “in vitro” of 4.78 ×10⁻⁶ cm/s.

`CC[C@H](C)[C@@H]1NC(=O)[C@@H](C(C)C)NC(=O)[C@@H](CC(C)C)N(C)C(=O)[C@H]2CCCN2C(=O)[C@@H](CC(C)C)NC(=O)[C@@H](CC(C)C)N(C)C(=O)[C@H](CC(C)C)NC(=O)[C@H]2CCCN2C(=O)[C@H](C)N(C)C(=O)[C@H]2CCCN2C1=O` [Design D10.41, DPRO *DLEU DVAL ILE DPRO *ALA DPRO LEU *DLEU DLEU] (cyclo(I[dP][NMeA][dP]L[dNMeL][dL][dP][dNMeL][dV])) registered a Papp A→B in data set [1] of 7.66 ×10⁻⁶ cm/s. Moreover, in the data set on Caco-2 cells, the Caco_R1 was 4.42 and the Caco_R3 was found to be 10.34. In data set [2], this molecule gave a PAMPA_R1 of 5.92E-06 and a PAMPA_R3 of 5.38E-06. Besides, the apparent permeability (Papp) in the data set “in vitro” was 5.69 ×10⁻⁶ cm/s.

Take `CC[C@@H](C)[C@H]1NC(=O)[C@H](CC(C)C)NC(=O)[C@@H](CC(C)C)NC(=O)[C@H](C(C)C)NC(=O)[C@@H](Cc2ccccc2)N(C)C(=O)[C@@H]2CCCN2C(=O)[C@@H](CC(C)C)NC(=O)[C@H](CC(C)C)N(C)C(=O)[C@H]2CCCN2C1=O` [Design D9.3, LEU DILE DPRO *LEU DLEU PRO *DPHE VAL DLEU] (cyclo(L[dI][dP][NMeL][dL]P[dNMeF]V[dL])): in data set [1], the Papp A→B amounted to 3.53 ×10⁻⁶ cm/s. In the data set on Caco-2 cells, the Caco_R1 worked out at 2.82 and the Caco_R3 was 3.81. In data set [2], this molecule yielded a PAMPA_R1 of 3.06E-06 and a PAMPA_R3 of 2.01E-06. In “in vitro”, this molecule showed a Papp of 2.33 ×10⁻⁶ cm/s.

`CC[C@H](C)[C@@H]1NC(=O)[C@@H](CC(C)C)NC(=O)[C@@H](C)N(C)C(=O)[C@H](Cc2ccccc2)NC(=O)[C@@H](CC(C)C)NC(=O)[C@@H](C)N(C)C(=O)[C@@H]2CCCN2C(=O)[C@H](C(C)C)NC(=O)[C@H]2CCCN2C(=O)[C@@H]2CCCN2C1=O` [Design D10.31, PHE *DALA DLEU ILE PRO DPRO VAL PRO *DALA DLEU] (cyclo(F[dNMeA][dL]IP[dP]VP[dNMeA][dL])): in data set [1], the apparent permeability from apical to basolateral (Papp A→B) turned out to be 2.79 ×10⁻⁶ cm/s. Also, in the data set with Caco-2 cells, the Caco_R1 stood at 1.93 and the Caco_R3 stood at 3.02. In data set [2], this molecule registered a PAMPA_R1 of 1.81E-06 and a PAMPA_R3 of 2.20E-06. The molecule also came in with a Papp in the data set “in vitro” of 1.9 ×10⁻⁶ cm/s.

Consider `CC[C@@H](C)[C@H]1NC(=O)[C@@H](CC(C)C)NC(=O)C(C)(C)NC(=O)[C@@H]2CCCN2C(=O)[C@@H]([C@H](C)CC)NC(=O)[C@@H](CC(C)C)NC(=O)C(C)(C)NC(=O)[C@@H]2CCCN2C1=O` [Design D8.2, PRO AIB DLEU DILE PRO AIB DLEU DILE] (cyclo([Aib][dL][dI]P[Aib][dL][dI]P)), for which the Papp A→B in data set [1] worked out at 11.7 ×10⁻⁶ cm/s. In the data set on Caco-2 cells, this molecule came in with a Caco_R1 of 8.98 and a Caco_R3 of 13.19. In data set [2], this molecule gave a PAMPA_R1 of 7.36E-06 and a PAMPA_R3 of 1.04E-05. The molecule also came in with an apparent permeability coefficient (Papp) in the data set “in vitro” of 7.49 ×10⁻⁶ cm/s.

Turning to `CC[C@H](C)[C@@H]1NC(=O)[C@@H](CC(C)C)NC(=O)[C@H](CC(C)C)N(C)C(=O)[C@H](Cc2ccccc2)NC(=O)CN(C)C(=O)[C@@H]2CCCN2C(=O)[C@H](C(C)C)NC(=O)[C@H](Cc2ccccc2)N(C)C(=O)[C@H]2CCCN2C(=O)[C@H](CC(C)C)NC1=O` (single isomer, unassigned) [Design D10.1.p1, DLEU ILE LEU DPRO *PHE VAL PRO *GLY PHE *LEU], the apical-to-basolateral permeability (Papp A→B) in data set [1] came out at 8.65 ×10⁻⁶ cm/s. In the data set with Caco-2 cells, this molecule displayed a Caco_R1 of 8.51 and a Caco_R3 of 8.51. In data set [2], this molecule gave a PAMPA_R1 of 4.75E-06 and a PAMPA_R3 of 3.42E-06. In the data set “in vitro”, this molecule gave an apparent permeability (Papp) of 3.92 ×10⁻⁶ cm/s.

Molecule `CC[C@H](C)[C@@H]1NC(=O)[C@@H]2CCCN2C(=O)[C@H]2CCCN2C(=O)[C@@H](CC(C)C)NC(=O)[C@@H](CC(C)C)N(C)C(=O)[C@@H](C(C)C)NC(=O)[C@H](C(C)C)NC(=O)[C@H]2CCCN2C(=O)[C@@H]2CCCN2C(=O)[C@H]([C@@H](C)CC)NC(=O)[C@H](C)N(C)C1=O` [Design D11.13, PRO DPRO VAL DVAL *DLEU DLEU DPRO PRO ILE *ALA ILE] (cyclo(I[NMeA]IP[dP]V[dV][dNMeL][dL][dP]P)) returned an apparent permeability from apical to basolateral (Papp A→B) in data set [1] of 4.5 ×10⁻⁶ cm/s. In the data set on Caco-2 cells, this molecule registered a Caco_R1 of 4.34 and a Caco_R3 of 4.75. In data set [2], this molecule came in with a PAMPA_R1 of 9.91E-07 and a PAMPA_R3 of 1.30E-06. In “in vitro”, this molecule had a Papp of 1.07 ×10⁻⁶ cm/s.

The values above are taken from publication PMC9490236, “Accurate de novo design of membrane-traversing macrocycles” (Cell, 2022).
